Data set [1] has as its target T1, human nicotinic acetylcholine receptor subtype α4β2 (Homo sapiens, UniProt P17787+P43681).
T1 construct: expressed in transfected cells
Put plainly: FLIPR nAChR α4β2 positive allosteric modulator activity. Particulars: HEK-293 cells stably expressing hα4β2; for Efficacy Response relative to Nicotine (%): maximal positively modulated response relative to maximal nicotine response (100 μM); for EC50: positive modulation of response to sub-maximal nicotine (EC20-30), peak values. The class given is cell-based. How it is done: Characterization of hα4β2 Positive Allosteric Modulators Using FLIPR
The ability is determined relative to a maximal nicotine response (100 μM). The activity is determined as a fluorescence-based assay using a Fluorometric Imaging Plate Reader (FLIPR) as described below in more detail.
Full concentration/response curves are generated and EC50 values are calculated based on peak values. EC50 values (Effective Concentration) represent the concentration of the test substance, at which the nicotine-induced EC20-30 response is positively modulated such that the size of the response equals 50% of the maximal response. The maximal positively modulated response (efficacy) is determined relative to the reference (nicotine) response.

Structures are written as SMILES.

T1 sequence (P43681 29-627 limits assumed): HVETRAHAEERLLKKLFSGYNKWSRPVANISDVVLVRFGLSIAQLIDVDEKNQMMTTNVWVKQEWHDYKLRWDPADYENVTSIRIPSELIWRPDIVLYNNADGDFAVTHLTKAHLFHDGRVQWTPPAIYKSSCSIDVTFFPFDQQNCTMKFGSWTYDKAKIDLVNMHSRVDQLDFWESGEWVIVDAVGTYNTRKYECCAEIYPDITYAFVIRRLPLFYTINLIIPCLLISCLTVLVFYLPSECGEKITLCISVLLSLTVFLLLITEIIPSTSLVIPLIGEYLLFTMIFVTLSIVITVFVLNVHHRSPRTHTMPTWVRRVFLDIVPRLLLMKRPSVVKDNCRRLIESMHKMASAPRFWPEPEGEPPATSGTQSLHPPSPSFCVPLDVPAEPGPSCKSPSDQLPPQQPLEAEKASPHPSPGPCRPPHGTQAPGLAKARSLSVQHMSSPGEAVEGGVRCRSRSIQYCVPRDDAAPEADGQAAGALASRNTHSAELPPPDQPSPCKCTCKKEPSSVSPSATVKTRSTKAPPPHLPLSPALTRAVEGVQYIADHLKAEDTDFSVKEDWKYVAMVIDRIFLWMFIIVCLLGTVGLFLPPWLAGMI
T1 sequence (P17787 26-502): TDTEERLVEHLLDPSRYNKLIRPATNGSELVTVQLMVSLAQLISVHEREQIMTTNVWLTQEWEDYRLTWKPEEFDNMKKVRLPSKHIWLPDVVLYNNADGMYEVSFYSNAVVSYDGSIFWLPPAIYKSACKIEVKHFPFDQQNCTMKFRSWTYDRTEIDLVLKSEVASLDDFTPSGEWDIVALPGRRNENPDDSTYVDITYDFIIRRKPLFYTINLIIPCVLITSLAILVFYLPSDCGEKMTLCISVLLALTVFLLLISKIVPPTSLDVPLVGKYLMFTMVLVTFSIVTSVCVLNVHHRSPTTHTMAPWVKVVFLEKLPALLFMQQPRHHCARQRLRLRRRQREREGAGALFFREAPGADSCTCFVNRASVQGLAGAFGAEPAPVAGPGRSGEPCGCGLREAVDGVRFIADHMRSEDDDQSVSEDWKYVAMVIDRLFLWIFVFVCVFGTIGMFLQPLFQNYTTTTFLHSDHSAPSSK

Take `N#Cc1cccc(-c2nnc(-c3cccnc3)o2)c1` [Compound 7.1, 3-(5-Pyridine-3-yl-[1,3,4]oxadiazol-2-yl)-benzonitrile]: in data set [1], the “Efficacy Response relative to Nicotine (%)” value was 133% and the EC50 (as a rule, the concentration needed to bring the measured effect to its halfway point) turned out to be 0.52 µM.
As for `O=[N+]([O-])c1ccc(-c2nnc(-c3cccnc3)o2)o1` [Compound 7.2, 3-(5-{5-Nitro-furan-2-yl}-[1,3,4]oxadiazol-2-yl)-pyridine], the melting point (commonly the temperature, or range, at which the solid turns liquid) was in the range of 165 to 168 °C.
Turning to `N#Cc1ccc(-c2nnc(-c3cccnc3)o2)s1` [Compound 7.6], in data set [1], the “Efficacy Response relative to Nicotine (%)” value was 153% and a half-maximal response (EC50) required 0.98 µM.
The molecule `N#Cc1cccc(-c2nnc(-c3cccc(C#N)c3)s2)c1` [Compound 8.2, 3-(5-{3-Cyano-phenyl}-[1,3,4]thiadiazol-2-yl)-benzonitrile] returned a melting point of 217 to 223 °C.

The values are drawn from patent publication US20100029685A1 (NeuroSearch A/S, priority 2006, published 2010).
